# Like-named read-outs stand apart in the source and are kept apart here.
# Tests used:
# BSA = biological target: T1, BSA (Bos taurus, UniProt P02769); set-up: Intact protein LC/MS covalent labelling, fragments in pools of five, 200 uM each, 4 °C; details: 24 h, 4 °C, pool of five; 200 µM; covalent
# T1 construct: gene ALB
# NNMT (hNNMT) = biological target: T2, NNMT (hNNMT) (Homo sapiens, UniProt P40261); set-up: Intact protein LC/MS covalent labelling, fragments in pools of five, 200 uM each, 4 °C; details: 24 h, 4 °C, pool of five; 200 µM; covalent
# T2 construct: wild type, N-terminal His6 tag kept (no cleavage described), E. coli, construct 31248 Da
# T2 sequence (P40261 1-264): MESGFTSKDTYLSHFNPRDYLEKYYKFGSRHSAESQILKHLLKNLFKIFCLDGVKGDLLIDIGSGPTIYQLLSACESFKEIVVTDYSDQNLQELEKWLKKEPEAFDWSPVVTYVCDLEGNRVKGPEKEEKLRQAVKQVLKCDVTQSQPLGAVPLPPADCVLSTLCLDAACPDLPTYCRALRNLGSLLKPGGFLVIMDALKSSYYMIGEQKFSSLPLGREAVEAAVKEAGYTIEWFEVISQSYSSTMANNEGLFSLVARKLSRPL
# NUDT7 = biological target: T3, NUDT7 (Homo sapiens, UniProt P0C024); set-up: Intact protein LC/MS covalent labelling, fragments in pools of five, 200 uM each, 4 °C; details: 24 h, 4 °C, pool of five; 200 µM; covalent
# T3 construct: residues 14-235, E. coli, pNIC28-Bsa4, N-terminal His6 tag removed by TEV, construct 26672 Da
# OTUB2 (OTUB2A) = biological target: T4, OTUB2 (OTUB2A) (Homo sapiens, UniProt Q96DC9); set-up: Intact protein LC/MS covalent labelling, fragments in pools of five, 200 uM each, 4 °C; details: 24 h, 4 °C, pool of five; 200 µM; covalent
# T4 construct: full length residues 1-234, E. coli BL21(DE3)-R3, His tag removed by TEV, construct 27312 Da
# T4 sequence (Q96DC9 1-234): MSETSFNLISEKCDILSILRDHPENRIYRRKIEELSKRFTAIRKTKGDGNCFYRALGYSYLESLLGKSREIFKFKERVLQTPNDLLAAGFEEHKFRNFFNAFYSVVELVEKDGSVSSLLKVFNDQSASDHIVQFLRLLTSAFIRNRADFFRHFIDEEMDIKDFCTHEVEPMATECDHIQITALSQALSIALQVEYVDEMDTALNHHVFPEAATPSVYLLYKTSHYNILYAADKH
# PCAF = biological target: T5, PCAF (Homo sapiens, UniProt Q92831); set-up: Intact protein LC/MS covalent labelling, fragments in pools of five, 200 uM each, 4 °C; details: 24 h, 4 °C, pool of five; 200 µM; covalent
# T5 construct: gene KAT2B
# in vitro [1] = experiment: in vitro; set-up: species or system CCD841, HEK293; details: human, hb2 cells, read-out: HB-2 Cells Viability (%)
# in vitro [2] = experiment: in vitro; set-up: species or system HB2, HEK293; details: human, ccd841 cells
# in vitro [3] = experiment: in vitro; set-up: species or system HB2, CCD841; details: human, hek293 cells
# T3 sequence (P0C024 14-235): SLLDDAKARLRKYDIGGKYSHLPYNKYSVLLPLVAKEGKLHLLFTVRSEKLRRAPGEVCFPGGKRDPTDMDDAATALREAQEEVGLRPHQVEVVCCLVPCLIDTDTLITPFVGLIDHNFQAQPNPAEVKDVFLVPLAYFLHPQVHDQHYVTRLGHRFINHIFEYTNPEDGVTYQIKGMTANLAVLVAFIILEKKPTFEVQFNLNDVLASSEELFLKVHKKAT
# T5 sequence (Q92831 whole entry, the tested form may be a part): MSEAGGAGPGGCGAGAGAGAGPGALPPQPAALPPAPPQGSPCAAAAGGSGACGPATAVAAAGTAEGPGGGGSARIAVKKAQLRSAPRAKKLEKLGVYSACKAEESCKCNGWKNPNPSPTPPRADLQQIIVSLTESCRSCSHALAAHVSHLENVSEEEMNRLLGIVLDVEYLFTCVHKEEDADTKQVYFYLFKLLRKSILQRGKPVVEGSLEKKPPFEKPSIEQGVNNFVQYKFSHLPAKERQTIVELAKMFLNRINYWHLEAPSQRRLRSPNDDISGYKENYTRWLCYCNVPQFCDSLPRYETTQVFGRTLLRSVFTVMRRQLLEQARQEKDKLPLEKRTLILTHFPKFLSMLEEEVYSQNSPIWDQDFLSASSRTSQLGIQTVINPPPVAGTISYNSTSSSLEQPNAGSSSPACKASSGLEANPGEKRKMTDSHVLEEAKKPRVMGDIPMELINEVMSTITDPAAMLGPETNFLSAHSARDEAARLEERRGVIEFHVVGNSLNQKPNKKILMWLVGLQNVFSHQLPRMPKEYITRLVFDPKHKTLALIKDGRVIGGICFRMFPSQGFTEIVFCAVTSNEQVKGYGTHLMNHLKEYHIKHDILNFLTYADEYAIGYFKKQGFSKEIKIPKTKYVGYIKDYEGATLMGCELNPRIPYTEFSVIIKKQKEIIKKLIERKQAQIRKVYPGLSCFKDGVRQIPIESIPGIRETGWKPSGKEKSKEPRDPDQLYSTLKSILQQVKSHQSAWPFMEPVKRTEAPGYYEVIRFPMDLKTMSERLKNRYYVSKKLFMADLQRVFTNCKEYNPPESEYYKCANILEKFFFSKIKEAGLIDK
# T1 sequence (P02769 whole entry, the tested form may be a part): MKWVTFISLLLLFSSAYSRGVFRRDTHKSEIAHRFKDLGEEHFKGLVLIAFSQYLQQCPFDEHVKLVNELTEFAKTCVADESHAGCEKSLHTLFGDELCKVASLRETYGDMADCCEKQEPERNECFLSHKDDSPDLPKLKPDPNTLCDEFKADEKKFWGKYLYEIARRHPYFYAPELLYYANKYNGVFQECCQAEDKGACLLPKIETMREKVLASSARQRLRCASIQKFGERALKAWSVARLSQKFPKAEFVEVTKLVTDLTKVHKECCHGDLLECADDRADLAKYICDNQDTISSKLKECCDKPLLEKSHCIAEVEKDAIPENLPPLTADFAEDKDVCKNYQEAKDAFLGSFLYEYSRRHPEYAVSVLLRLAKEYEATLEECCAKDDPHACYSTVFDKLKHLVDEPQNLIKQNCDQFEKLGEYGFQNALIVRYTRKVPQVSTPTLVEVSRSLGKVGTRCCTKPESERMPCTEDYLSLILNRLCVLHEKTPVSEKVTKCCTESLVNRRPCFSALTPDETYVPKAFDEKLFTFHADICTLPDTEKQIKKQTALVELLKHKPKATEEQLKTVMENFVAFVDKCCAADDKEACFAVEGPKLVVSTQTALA
smiles,measurement,setting,value
O=C(CCl)N(C1CCCC1)C1CC1 [PCM-0103064],BSA,BSA,0
same,NNMT,NNMT (hNNMT),0
same,NUDT7,NUDT7,0
same,OTUB2,OTUB2 (OTUB2A),0
same,PCAF,PCAF,0
same,"viability at 48 h, 10 µM",in vitro [1],102%
same,"viability at 48 h, 10 µM",in vitro [2],87.8%
same,"viability at 48 h, 10 µM",in vitro [3],74%
O=C(CCl)NC12CC3CC(CC(C3)C1)C2 [PCM-0102118],BSA,BSA,0
same,NNMT,NNMT (hNNMT),0.23
same,NUDT7,NUDT7,0
same,OTUB2,OTUB2 (OTUB2A),0
same,PCAF,PCAF,0
same,"viability at 48 h, 10 µM",in vitro [1],83%
same,"viability at 48 h, 10 µM",in vitro [2],76.1%
same,"viability at 48 h, 10 µM",in vitro [3],71.1%
O=C(CCl)Nc1ccccc1F [PCM-0102158],BSA,BSA,0
same,NNMT,NNMT (hNNMT),0
same,NUDT7,NUDT7,0
same,OTUB2,OTUB2 (OTUB2A),0.51
same,PCAF,PCAF,0
same,"viability at 48 h, 10 µM",in vitro [1],50%
same,"viability at 48 h, 10 µM",in vitro [2],59%
same,"viability at 48 h, 10 µM",in vitro [3],34.2%
CC(NC(=O)CCl)c1ccc2c(c1)CC(=O)N2 (stereo not shown) [PCM-0102816],BSA,BSA,0
same,NNMT,NNMT (hNNMT),0
same,NUDT7,NUDT7,0.22
same,OTUB2,OTUB2 (OTUB2A),0.29
same,PCAF,PCAF,0
same,"viability at 48 h, 10 µM",in vitro [1],94.8%
same,"viability at 48 h, 10 µM",in vitro [2],86%
same,"viability at 48 h, 10 µM",in vitro [3],74.8%
C=CC(=O)N1CCC2C(CCCN2Cc2ccccc2)C1 (stereo not shown) [PCM-0102673],BSA,BSA,0
same,NNMT,NNMT (hNNMT),0
same,NUDT7,NUDT7,0
same,OTUB2,OTUB2 (OTUB2A),0
same,PCAF,PCAF,0
same,"viability at 48 h, 10 µM",in vitro [1],102%
same,"viability at 48 h, 10 µM",in vitro [2],116%
same,"viability at 48 h, 10 µM",in vitro [3],85%
CC(C)c1cccc(NC(=O)CCl)c1 [PCM-0102429],BSA,BSA,0
same,NNMT,NNMT (hNNMT),0.52
same,NUDT7,NUDT7,0.1
same,OTUB2,OTUB2 (OTUB2A),0.23
same,PCAF,PCAF,0
same,"viability at 48 h, 10 µM",in vitro [1],17.7%
same,"viability at 48 h, 10 µM",in vitro [2],57.3%
same,"viability at 48 h, 10 µM",in vitro [3],17.7%
O=C(CCl)Nc1nc2c(s1)CCC2 [PCM-0102457],BSA,BSA,0
same,NNMT,NNMT (hNNMT),0.59
same,NUDT7,NUDT7,0.37
same,OTUB2,OTUB2 (OTUB2A),0
same,PCAF,PCAF,0
same,"viability at 48 h, 10 µM",in vitro [1],42.3%
same,"viability at 48 h, 10 µM",in vitro [2],61%
same,"viability at 48 h, 10 µM",in vitro [3],43.3%
COc1ccc(C2=CCN(C(=O)CCl)CC2)cc1 [PCM-0102929],BSA,BSA,0
same,NNMT,NNMT (hNNMT),0.22
same,NUDT7,NUDT7,0.45
same,OTUB2,OTUB2 (OTUB2A),0
same,PCAF,PCAF,0
same,"viability at 48 h, 10 µM",in vitro [1],59.4%
same,"viability at 48 h, 10 µM",in vitro [2],90.4%
same,"viability at 48 h, 10 µM",in vitro [3],71%
CCc1nnc(NC(=O)CCl)s1 [PCM-0102166],BSA,BSA,0
same,NNMT,NNMT (hNNMT),0.42
same,NUDT7,NUDT7,0.21
same,OTUB2,OTUB2 (OTUB2A),0
same,PCAF,PCAF,0
same,"viability at 48 h, 10 µM",in vitro [1],94.5%
same,"viability at 48 h, 10 µM",in vitro [2],92.5%
same,"viability at 48 h, 10 µM",in vitro [3],95.8%
Cc1ccsc1CNC(=O)CCl [PCM-0103075],BSA,BSA,0.21
same,NNMT,NNMT (hNNMT),0
same,NUDT7,NUDT7,0
same,OTUB2,OTUB2 (OTUB2A),0.55
same,PCAF,PCAF,0
same,"viability at 48 h, 10 µM",in vitro [1],96.1%
same,"viability at 48 h, 10 µM",in vitro [2],76.7%
same,"viability at 48 h, 10 µM",in vitro [3],83.8%
C=CC(=O)NCC1CCCc2sc(C)nc21 (stereo not shown) [PCM-0102952],BSA,BSA,0
same,NNMT,NNMT (hNNMT),0
same,NUDT7,NUDT7,0
same,OTUB2,OTUB2 (OTUB2A),0
same,PCAF,PCAF,0
same,"viability at 48 h, 10 µM",in vitro [1],97.6%
same,"viability at 48 h, 10 µM",in vitro [2],114%
same,"viability at 48 h, 10 µM",in vitro [3],95.2%
CC(C)(C)c1ccc(C(=O)NNC(=O)CCl)cc1 [PCM-0102355],BSA,BSA,0
same,NNMT,NNMT (hNNMT),0
same,NUDT7,NUDT7,0
same,OTUB2,OTUB2 (OTUB2A),0.66
same,PCAF,PCAF,0
same,"viability at 48 h, 10 µM",in vitro [1],48.1%
same,"viability at 48 h, 10 µM",in vitro [2],44.3%
same,"viability at 48 h, 10 µM",in vitro [3],53.7%
COCC(=O)NC(=O)CCl [PCM-0102904],BSA,BSA,0
same,NNMT,NNMT (hNNMT),0
same,NUDT7,NUDT7,0
same,OTUB2,OTUB2 (OTUB2A),0
same,PCAF,PCAF,0
same,"viability at 48 h, 10 µM",in vitro [1],101%
same,"viability at 48 h, 10 µM",in vitro [2],116%
same,"viability at 48 h, 10 µM",in vitro [3],105%
C=CC(=O)N1CCCc2cc(C(=O)O)ccc21 [PCM-0102421],BSA,BSA,0
same,NNMT,NNMT (hNNMT),0.19
same,NUDT7,NUDT7,0
same,OTUB2,OTUB2 (OTUB2A),0
same,PCAF,PCAF,0
same,"viability at 48 h, 10 µM",in vitro [1],96.3%
same,"viability at 48 h, 10 µM",in vitro [2],109%
same,"viability at 48 h, 10 µM",in vitro [3],87.2%
C=CC(=O)N(C)Cc1c(C)nc2sc(C)cn12 [PCM-0102679],BSA,BSA,0
same,NNMT,NNMT (hNNMT),0.32
same,NUDT7,NUDT7,0.06
same,OTUB2,OTUB2 (OTUB2A),0
same,PCAF,PCAF,0
same,"viability at 48 h, 10 µM",in vitro [1],103%
same,"viability at 48 h, 10 µM",in vitro [2],108%
same,"viability at 48 h, 10 µM",in vitro [3],83.2%
CC1CCCC(C)N1C(=O)CCl (stereo not shown) [PCM-0102616],BSA,BSA,0
same,NNMT,NNMT (hNNMT),0.2
same,NUDT7,NUDT7,0
same,OTUB2,OTUB2 (OTUB2A),0
same,PCAF,PCAF,0
same,"viability at 48 h, 10 µM",in vitro [1],71%
same,"viability at 48 h, 10 µM",in vitro [2],88.1%
same,"viability at 48 h, 10 µM",in vitro [3],57.9%
O=C(CCl)Nc1cccc(N2CCCC2=O)c1 [PCM-0102179],BSA,BSA,0
same,NNMT,NNMT (hNNMT),0.23
same,NUDT7,NUDT7,0.12
same,OTUB2,OTUB2 (OTUB2A),0.47
same,PCAF,PCAF,0
same,"viability at 48 h, 10 µM",in vitro [1],20.8%
same,"viability at 48 h, 10 µM",in vitro [2],52.4%
same,"viability at 48 h, 10 µM",in vitro [3],1.8%
O=C(CCl)NC(=O)c1cccc([N+](=O)[O-])c1 [PCM-0102460],BSA,BSA,0
same,NNMT,NNMT (hNNMT),0.12
same,NUDT7,NUDT7,0
same,OTUB2,OTUB2 (OTUB2A),0
same,PCAF,PCAF,0
same,"viability at 48 h, 10 µM",in vitro [1],99.8%
same,"viability at 48 h, 10 µM",in vitro [2],95.9%
same,"viability at 48 h, 10 µM",in vitro [3],117%
O=C(CCl)N1CCN(S(=O)(=O)c2ccccc2F)CC1 [PCM-0102281],BSA,BSA,0
same,NNMT,NNMT (hNNMT),0
same,NUDT7,NUDT7,0.14
same,OTUB2,OTUB2 (OTUB2A),0
same,PCAF,PCAF,0
same,"viability at 48 h, 10 µM",in vitro [1],7.1%
same,"viability at 48 h, 10 µM",in vitro [2],62.6%
same,"viability at 48 h, 10 µM",in vitro [3],9.5%
O=C(CCl)Nc1cccnc1Cl [PCM-0102274],BSA,BSA,0
same,NNMT,NNMT (hNNMT),0
same,NUDT7,NUDT7,0
same,OTUB2,OTUB2 (OTUB2A),0
same,PCAF,PCAF,0
same,"viability at 48 h, 10 µM",in vitro [1],84.4%
same,"viability at 48 h, 10 µM",in vitro [2],88.8%
same,"viability at 48 h, 10 µM",in vitro [3],81.4%
